Test results taken from patent publication US5103013A, “Dithioketene derivatives, pharmaceutical compositions containing the same and uses thereof” (Yuhan Corporation, Ltd., priority 1988, dated 1992).

Assays:
[1] = tested on: serum alanine aminotransferase (ALT) increase induced by CCl4; assay: Protective effect against acute hepatic damage induced by carbon tetrachloride (suppression of serum ALT increase); type: in vivo; conditions: Mus musculus; mice, oral 50 mg/kg in 0.2% CMC-Na, 6 h before oral CCl4 (50 ul/kg); serum ALT 24 h after CCl4; read-out: Inhibitory (%) (protective effect of test compound against increase of serum ALT activity induced by CCl4)
Protocol: Carbon tetrachloride (CCl4) is a well-known hepatotoxic agent, thus widely used to produce experimental animal models for screening the potential drugs acting upon hepatic diseases. In this experiment test compounds were administered to mice prior to treatment with CCl4. 24 Hours after the CCl4 treatment, the animals were sacrificed and serum alanine aminotransferase (ALT) levels were determined. The hepatoprotective effect of a test compound was evaluated by the suppressive action against the increase of serum ALT induced by CCl4.
The experimental animals were divided into the normal, the CCl4 treated and the test compound treated groups. Each group consisted of 8 mice with body weight of 20-25 grams. The test compounds were suspended in 0.2% sodium carboxymethylcellulose (CMC--Na) solution and administered orally at the dose of 50 mg/125 ml/kg body weight. Only the vehicle 0.2% CMC--Na solution, was administered to the normal and to the CCl4 treated group instead of the test compound suspension.
6 Hours after the drug administration, the CCl4 solution in olive oil was administered orally to the CCl4 treated-group and the test compound treated group at the dose of 50 ul/25 ml olive oil/kg body weight. The normal group was administered with olive oil only at the same dose. 24 Hours after the CCl4 administration, blood samples were collected from the orbital sinus of the animals and the sera were monitored using an automatic blood analyzer (Gilford, SBA 300). The hepatoprotective effect of the test compounds was expressed by the suppressive percentage against the increase of serum ALT level induced by CCl4 calculated by the following formula; [formula]

[2] = tested on: serum ALT increase induced by CCl4; assay: Determination of 50% effective dose (ED50) against CCl4-induced serum ALT increase; type: in vivo; conditions: Mus musculus; mice, oral 50, 25, 12.5 or 6.25 mg/kg, 6 h before CCl4; serum ALT 24 h after CCl4; estimated from dose-response curves; read-out: ED50 (50% effective dose of test compound)
Protocol: The various doses of test compounds were administered to mice, followed by the treatment with CCl4 after 6 hours. 24 Hours after the CCl4 treatment, the serum ALT level of the animals were determined. The hepatoprotective effect of the test compounds and the doses were plotted to form doseresponse curves, from which the ED50 doses of the test compounds were estimated.
The experimental animals were divided into the normal, the CCl4 treated and the test compound treated groups. Each group consisted of 8 mice with body weight of 20-25 grams. The test compounds were suspended in 0.2% CMC--Na solution and administered orally at a dose of 50 mg, 25 mg, 12.5 mg or 6.25 mg/125 ml/kg body weight. Only the vehicle, 0.2% CMC--Na solution, was administered to the normal and to the CCl4 treated group instead of the test compound suspension. 6 Hours later, the CCl4 solution in olive oil was administered orally to the CCl4 treated and the test compound treated groups at the dose of 50 ul/25 ml oilve oil/kg body weight. The norm group was administered olive oil only at the same dose. 24 Hours after the CCl4 administration, blood samples were collected from the orbital sinuses of the animals and the sera were obtained by centrifugation. The serum ALT activities were monitored and the hepatoprotective effect of the test compounds were calculated by the same method as described in experiment 1. The percentages were plotted against the corresponding doses of the test compounds to make dose-response curves, from which the 50% effective dose of test compound was estimated.

[3] = Acute toxicity of test compounds (oral LD50); conditions: mouse, in vivo, male ICR mice, 0.2% CMC-Na suspension, dead mice counted for 14 days, read-out: LD50 of Test Compound (column head prints ED50)
Protocol: Each test compound was suspended in 0.2% CMC--Na solution in various concentrations to make test suspensions. The test suspensions were administered orally to male ICR mice (10 in each group) at various doses. The number of dead mice was counted for 14 days and the value of median lethal dose (LD50, g/kg) was calculated by the Hitchifield-Wilcoxon method.

Structure (SMILES) | inhibition in vivo at 50 mg/kg [1] | ED50 [2] | LD50 at 336 h [3]
CC(C)OC(=O)C(C(=O)NCc1ccccc1)=C1SCS1 [Example 15, Isopropyl 2-(1,3-dithietan-2-ylidene)-2-(N-benzylcarbamoyl)acetate] | 97% | 10 mg/kg | 
CC(C)OC(=O)C(C(=O)Nc1nncs1)=C1SCS1 [Example 28, Isopropyl 2-(1,3-dithietan-2-ylidene)-2-[N-(1,3,4-thiadiazol-2-yl)carbamoyl]acetate] | 100% | < 6.25 mg/kg | > 5000 mg/kg
CC(C)OC(=O)C(C(=O)Nc1ccc(C(F)(F)F)cc1)=C1SCS1 [Example 19, Isopropyl 2-(1,3-dithietan-2-ylidene)-2-[N-(4-trifluoromethylphenyl)carbamoyl]acetate] | 100% | 6.25 mg/kg | 
Cc1csc(NC(=O)C(C(=O)OC(C)C)=C2SCS2)n1 [Example 24, Isopropyl 2-(1,3-dithietan-2-ylidene)-2-[N-(4-methyl-2-thiazolyl)carbamoyl]acetate] | 100% | < 6.25 mg/kg | > 5000 mg/kg
CC(C)OC(=O)C(C(=O)Nc1ccccn1)=C1SCCS1 [Example 32, Isopropyl 2-(1,3-dithiolan-2-ylidene)-2-[N-(2-pyridyl)carbamoyl]acetate] | 85% | < 50 mg/kg | 
CC(C)OC(=O)C(C(=O)Nc1ccc(C(F)(F)F)cc1)=C1SCCS1 [Example 21, Isopropyl 2-(1,3-dithiolan-2-ylidene)-2-[N-(4-trifluoromethylphenyl)carbamoyl]acetate] | 98% | < 50 mg/kg | 
Cc1csc(NC(=O)C(C(=O)OC(C)C)=C2SCCS2)n1 [Example 26, Isopropyl 2-(1,3-dithiolan-2-ylidene)-2-[N-(4-methyl-2-thiazolyl)carbamoyl]acetate] | 98% | < 50 mg/kg | 
CC(C)OC(=O)C(C(N)=O)=C1SCS1 [Example 13, Isopropyl 2-(1,3-dithietan-2-ylidene)-2-carbamoylacetate] | 28% | > 50 mg/kg | < 5000 mg/kg
CC(C)OC(=O)C(C(=O)Nc1nc(-c2ccccc2)cs1)=C1SCS1 [Example 27, Isopropyl 2-(1,3-dithietan-2-ylidene)-2-[N-(4-phenyl-2-thiazolyl)carbamoyl]acetate] | 11% | > 50 mg/kg | 
CC(C)OC(=O)C(C(=O)Nc1ccccc1)=C1SCS1 [Example 18, Isopropyl 2-(1,3-dithietan-2-ylidene)-2-(N-phenylcarbamoyl)acetate] | 100% | 7 mg/kg | 
CC(C)OC(=O)C(C(=O)Nc1nccs1)=C1SCS1 [Example 22, Isopropyl 2-(1,3-dithietan-2-ylidene)-2-[N-(2-thiazolyl)carbamoyl]acetate] | 100% | < 6.25 mg/kg | > 5000 mg/kg
CC(C)OC(=O)C(C(=O)Nc1ccccn1)=C1SCS1 [Example 29, Isopropyl 2-(1,3-dithietan-2-ylidene)-2-[N-(2-pyridyl)carbamoyl]acetate] | 100% | 10 mg/kg | > 5000 mg/kg
